Biological target: T1, stearoyl-CoA desaturase (SCD) (Rattus norvegicus, UniProt P07308)
T1 construct: from tissue; host or cells: liver microsomes of male Sprague Dawley rats, with SCD induced by a carbohydrate-rich diet after fasting/feeding cycles
T1 sequence (P07308 1-358): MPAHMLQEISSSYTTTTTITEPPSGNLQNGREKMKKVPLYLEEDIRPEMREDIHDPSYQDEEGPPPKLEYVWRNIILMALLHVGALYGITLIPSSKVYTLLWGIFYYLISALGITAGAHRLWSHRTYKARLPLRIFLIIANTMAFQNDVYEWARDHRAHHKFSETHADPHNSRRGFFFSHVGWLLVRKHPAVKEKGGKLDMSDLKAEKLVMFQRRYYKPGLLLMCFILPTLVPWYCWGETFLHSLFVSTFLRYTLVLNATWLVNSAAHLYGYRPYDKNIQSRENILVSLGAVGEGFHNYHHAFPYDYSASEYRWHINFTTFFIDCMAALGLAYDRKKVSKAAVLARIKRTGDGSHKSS
Assay: SCD assay in rat liver microsomes ([3H]stearoyl CoA desaturation, adapted from Talamo and Bloch)
Type: biochemical
Conditions: rat liver microsomes 0.2 mg/ml assay final, 30 min preincubation, 45 min reaction, room temperature
Text: The identification of compounds of the invention as SCD inhibitors was readily accomplished using the SCD enzyme and microsomal assay procedure described in Talamo and Bloch (1969) Analytical Biochemistry 29:300-304.
The rat liver microsomes were collected according to the procedure described in Ozols (1990) Methods Enzm, 182:225.
Male Spraque Dawley Rats were placed on regimented fasting protocol for one week to stimulate SCD enzymatic activity. 48-hour periods were alternated between feeding and fasting to induce and down-regulate SCD activity with SCD activity being induced via carbohydrate rich diet prior to liver perfusion and collection.
The rats were anesthetized with Isoflurane inhalation anesthetic, the liver perfused with cold phosphate buffered saline (PBS), weighed, and chilled in cold homogenization buffer (250 mM sucrose, 10 mM Tris, 1 mM EDTA, pH 7.6.
The livers were finely minced and placed in homogenization tube. 40 mL of homogenization buffer was added to the homogenization tube and the liver homogenized and centrifuged in a pre-chilled […] for 10 min at 4° C.
Following centrifugation, the supernatant was collected and the pellet removed and discarded. The supernatant was centrifuge at 10,000 G for 35 minutes. Following centrifugation, the supernatant was collect and the pellet discarded. The supernatant was then centrifuged in a pre-chilled 45-Ti rotor at 130,000 G (41,000 RPM) for 90 minutes at 4° C.
The supernatant was then aspirated off and the collected microsomal pellet washed in 25 mL of Glycerol PBS (1×PBS 7.4, 20% Glycerol) and resuspended in 4-5 volumes of Glycerol PBS.
The protein concentration of the microsomal preparation was determined by BCA assay (Pierce) and the microsomes were aliquoted and stored at −80° C.
Biobeads were ground to a smaller size in a mortar and pestle and resuspended in 3.6% TCA. The beads were then filtered through […] mesh.
SCD was determined in the desaturase assay buffer. This assay buffer contained 0.1 M Tris buffer, pH 7.2, 2 mM NADH, 4.8 mM ATP, 0.5 mM CoA, 4.8 mM MgCl2, and 0.1% BSA.
The Procedure for the SCD Assay (Adapted from Talamo and Bloch (1969) Analytical Biochemistry 29:300-304)
1 μl of each compound of Formula I was added to an assay plate by a low volume (0.5-10 μL) multichannel pipette. A DMSO control was also prepared. The microsomes were quickly thawed and added to assay buffer so that a concentration of 0.4 mg/ml was achieved (0.2 mg/ml assay final). 50 μl of the microsome suspension in assay buffer was then added into each well in the compound assay plate, the plate was covered, and the microsomes preincubated with the compounds for 30 minutes on the orbital shaker, 50-75 rpm, at room temperature.
After preincubation, the reaction was initiated by the addition of 50 μl of substrate solution (20 μM Stearoyl CoA, [3H]Stearoyl CoA, 74 nCi) to the preincubated microsomes/compound suspensions in MilliQ (Millipore) H2O. The reaction mixtures were then incubated for 45 minutes on the orbital shaker at 50-75 rpm at room temperature.
The reaction was terminated by the addition of 10 μl of 21% […] (TCA) to the reaction mixture followed incubation on the orbital shaker for 30 minutes at 50-75 rpm at room temperature followed by centrifugation for 5 minutes at 3700 rpm.
50 μl of a 6% Bio-Bead suspension in H2O was added to the reaction mixture and the assay plate was sealed. The Bio-Bead mixture was incubated on the orbital shaker for 1 hour, 100-150 rpm at room temperature, and then the mixture was centrifuged at 2000 g for 5 minutes to pellet the Bio-Beads.
25 μl of the supernatant was harvested from each well and transferred to a detection plate. 100 μl of OptiPhase SuperMix scinitillation cocktail (containing sufficient NaOH to neutralize the TCA) was added and the solutions mixed by vigorous shaking (300-400 rpm) for 5 minutes at room temperature. […]

IC50	SMILES
1.18 µM	O=C(NCCn1c(=O)c(-c2cccnc2)nc2cnc(NCc3ccc(Cl)c(Cl)c3)nc21)c1ccc(F)cc1 [Compound 38, N-[2-(2-{[(3,4-dichlorophenyl)methyl]amino}-7-oxo-6-(3-pyridyl)(8-hydropteridin-8-yl))ethyl](4-fluorophenyl)carboxamide]
5.01 µM	O=C(NCCn1c(=O)c(-c2cccnc2)nc2cnc(NCc3ccc(Cl)c(Cl)c3)nc21)c1ccsc1 [Compound 37, N-[2-(2-{[(3,4-dichlorophenyl)methyl]amino}-7-oxo-6-(3-pyridyl)(8-hydropteridin-8-yl))ethyl]-3-thienylcarboxamide]
1.3 µM	COc1ccc(-c2nc3cnc(NCc4ccc(F)cc4)nc3n(CCNC(C)=O)c2=O)cc1 [Compound 10, N-[2-(2-{[(4-fluorophenyl)methyl]amino}-6-(4-methoxyphenyl)-7-oxo-8-hydropteridin-8-yl)ethyl]acetamide]
5.7 µM	CC(=O)NCCn1c(=O)c(-c2cccnc2)nc2cnc(NCc3ccc(F)cc3)nc21 [Compound 11, N-[2-(2-{[(4-fluorophenyl)methyl]amino}-7-oxo-6-(3-pyridyl)-8-hydropteridin-8-yl)ethyl]acetamide]
22 µM	CC(=O)NCCn1c(=O)c(C(F)(F)F)nc2cnc(NCc3ccc(F)cc3)nc21 [Compound 20, N-[2-(2-{[(4-fluorophenyl)methyl]amino}-7-oxo-6-(trifluoromethyl)-8-hydropteridin-8-yl)ethyl]acetamide]
0.16 µM	COc1ccc(-c2nc3cnc(NCc4ccc(Cl)c(Cl)c4)nc3n(CCNC(C)=O)c2=O)cc1 [Compound 1, N-[2-(2-{[(3,4-dichlorophenyl)methyl]amino}-6-(4-methoxyphenyl)-7-oxo-8-hydropteridin-8-yl)ethyl]acetamide]
1.8 µM	CC(=O)NCCn1c(=O)c(-c2ccc(Cl)cc2)nc2cnc(NCc3ccc(F)cc3)nc21 [Compound 33, N-[2-(6-(4-chlorophenyl)-2-{[(4-fluorophenyl)methyl]amino}-7-oxo-8-hydropteridin-8-yl)ethyl]acetamide]
9.1 µM	CC(=O)NCCn1c(=O)c(-c2cccnc2)nc2cnc(NCc3cccc(Cl)c3)nc21 [Compound 27, N-[2-(2-{[(3-chlorophenyl)methyl]amino}-7-oxo-6-(3-pyridyl)-8-hydropteridin-8-yl)ethyl]acetamide]
2 µM	CC(=O)NCCn1c(=O)c(-c2cccs2)nc2cnc(NCc3ccc(Cl)c(Cl)c3)nc21 [Compound 14, N-[2-(2-{[(3,4-dichlorophenyl)methyl]amino}-7-oxo-6-(2-thienyl)-8-hydropteridin-8-yl)ethyl]acetamide]
3.4 µM	CC(=O)NCCn1c(=O)c(-c2cccs2)nc2cnc(NCc3ccc(F)c(F)c3)nc21 [Compound 19, N-[2-(2-{[(3,4-difluorophenyl)methyl]amino}-7-oxo-6-(2-thienyl)-8-hydropteridin-8-yl)ethyl]acetamide]
13 µM	COc1ccc(-c2nc3cnc(NCc4ccc(F)c(F)c4)nc3n(CCNC(C)=O)c2=O)cc1 [Compound 18, N-[2-(2-{[(3,4-difluorophenyl)methyl]amino}-6-(4-methoxyphenyl)-7-oxo-8-hydropteridin-8-yl)ethyl]acetamide]
0.56 µM	COc1ccc(-c2nc3cnc(NCc4ccc(Cl)c(Cl)c4)nc3n(CCNC(=O)c3ccccc3)c2=O)cc1 [Compound 7, N-[2-(2-{[(3,4-dichlorophenyl)methyl]amino}-6-(4-methoxyphenyl)-7-oxo(8-hydropteridin-8-yl))ethyl]benzamide]
1.89 µM	CC(=O)NCCn1c(=O)c(-c2ccc(Cl)cc2)nc2cnc(NCc3ccc(Cl)c(Cl)c3)nc21 [Compound 32, N-[2-(2-{[(3,4-dichlorophenyl)methyl]amino}-6-(4-chlorophenyl)-7-oxo-8-hydropteridin-8-yl)ethyl]acetamide]
6.12 µM	O=C(NCCn1c(=O)cnc2cnc(NCc3ccc(Cl)c(Cl)c3)nc21)c1ccsc1 [Compound 35, N-[2-(2-{[(3,4-dichlorophenyl)methyl]amino}-7-oxo(8-hydropteridin-8-yl))ethyl]-3-thienylcarboxamide]

Reference: patent US7662819B2, “Pteridinone derivatives for use as stearoyl CoA desaturase inhibitors” (Gilead Palo Alto, Inc., priority 2007, dated 2010)
